Measurements from patent publication US8912144B2, “Method for treating stroke via administration of NEP1-40 and inosine” (Children's Medical Center Corporation, priority 2003, dated 2014).

Tested on: corticospinal tract (CST) axons
Test: BDA tracing of CST axons in sham-operated animals (no brain injury)
Assay type: in vivo, rat
Conditions: sham surgery, 4 weeks treatment
Description: In groups treated for four weeks after stroke, animals were re-anesthetized, the infusion needle and pump were removed, and a craniotomy was performed over the uninjured SMA. The anterograde tracer bioti-nylated dextran amine (BDA: Molecular Probes: 10% wt/vol in sterile saline) was injected stereotaxically at depths of 0.5, 1.0, and 2.0 mm below the cortical surface at 18 standardized points distributed over the sensorimotor cortex (70 nl per injection; Nano-ject, Drummond Scientific, Broomall, Pa.). Two weeks later, animals were anesthetized and perfused transcardially with 0.9% saline followed by 4% paraformaldehyde. The brain and spinal cord were dissected and post-fixed overnight in 4% paraformaldehyde, followed by 10% and 30% sucrose solutions over the next few days. Tissue was em-bedded in OCT Tissue Tek Medium (Sakura Finetek USA Inc., CA) and frozen on dry ice. […] Six to ten sections spanning a distance of 1.2 mm were examined and quantified for (a) BDA-labeled axon profiles ≧40 μm in length within the dorsal funiculus on the denervated side of the spinal cord (ipsilateral to the BDA injection and contralateral to the injury); (b) BDA+axons≧40 μm in length in the gray matter of the denervated side of the spinal cord, and (c) BDA+axons≧200 μm in length on the denervated side. […] Average numbers of axons were calculated and converted to axons per mm of spinal cord. […]

`OC[C@H]1O[C@@H](n2cnc3c(O)ncnc32)[C@H](O)[C@@H]1O` [inosine] was tested, and the “labeled CST axons in spinal grey matter ipsilateral to the labeled hemisphere” value was 77.5±9.0 axons/mm.
